Experimental data taken from PubChem BioAssay AID330 (DTP/NCI, 2004).
Where “and” joins values, the source holds several entries; their conditions need not be identical. Identical values can stand only once. Toxic doses and inconclusive results are not listed. The calls were made as follows: active = survival T/C of 150% or more; inactive = T/C below 125% in these data.

System: P388 leukemia ip, CD2F1 mice, survival T/C
Experiment: NCI In Vivo Anticancer Drug Screen. Data for tumor model P388 Leukemia (intraperitoneal) in CD2F1 (CDF1) mice
Settings: endpoint: median survival time, higher = longer survival
How it was run: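 Mice carrying the transplanted tumor received test compound or vehicle. Survival was recorded in each group, and the value is the treated-group measurement divided by that of the vehicle-treated control group.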

[1] = dose: 50.0 mg/kg/injection, schedule: Q01DX005 (ip), vehicle: saline with Tween-80
[2] = dose: 100.0 mg/kg/injection, schedule: Q01DX005 (ip), vehicle: saline with Tween-80
[3] = dose: 100.0 mg/kg/injection, schedule: Q01DX009 (ip), vehicle: saline with Tween-80
[4] = dose: 200.0 mg/kg/injection, schedule: Q01DX009 (ip), vehicle: saline with Tween-80
[5] = dose: 60.0 mg/kg/injection, schedule: Q01DX005 (ip), vehicle: saline with Tween-80
[6] = dose: 120.0 mg/kg/injection, schedule: Q01DX005 (ip), vehicle: saline with Tween-80
[7] = dose: 240.0 mg/kg/injection, schedule: Q01DX005 (ip), vehicle: saline with Tween-80
[8] = dose: 100.0 mg/kg/injection, schedule: Q04DX003 (ip), vehicle: saline with Tween-80
[9] = dose: 200.0 mg/kg/injection, schedule: Q01DX005 (ip), vehicle: saline with Tween-80

Measured: T/C

CN(C)CC1CCc2c(ccc3ccccc23)C1=O (centres undefined)
inactive: dose: 12.5 mg/kg/injection, schedule: Q01DX005 (ip), vehicle: saline with Tween-80 100 % of control | dose: 25.0 mg/kg/injection, schedule: Q01DX005 (ip), vehicle: saline with Tween-80 103 % of control | [1] 100 % of control | [2] 104 % of control

CCOC(=O)CC(C)=NCCN=C(C)CC(=O)OCC
inactive: dose: 50.0 mg/kg/injection, schedule: Q01DX009 (ip), vehicle: saline with Tween-80 104 % of control | [3] 106 % of control | [4] 111 % of control

CCOC(=O)c1cc(=O)n(C)c2ccc(OCC)cc12
inactive: [3] 90 % of control | [4] 95 % of control | dose: 400.0 mg/kg/injection, schedule: Q01DX009 (ip), vehicle: saline with Tween-80 90 % of control

C1=CN2CC(c3ccccc3)=NNC2c2ccccc21 (centres undefined)
inactive: dose: 100.0 mg/kg/injection, schedule: Q04DX002 (ip), vehicle: Klucel (hydroxypropylcellulose) (HPC) 107 % of control | dose: 200.0 mg/kg/injection, schedule: Q04DX002 (ip), vehicle: Klucel (hydroxypropylcellulose) (HPC) 99 % of control

N#CC(C#N)=CNc1ccccc1C(=O)NCCCn1ccnc1
inactive: [5] 93 % of control | [6] 93 % of control | [7] 95 % of control

C/C(=N/NC(=O)c1ccccc1)C(=NO)/C(C)=N\NC(=O)c1ccccc1
inactive: dose: 100.0 mg/kg/injection, schedule: Q01DX001 (ip), vehicle: saline 100 % of control | dose: 200.0 mg/kg/injection, schedule: Q01DX001 (ip), vehicle: saline 97 % of control | dose: 400.0 mg/kg/injection, schedule: Q01DX001 (ip), vehicle: saline 100 % of control

O=C(O)/C=C(O)/C=C/c1ccccc1
inactive: [8] 92 % of control | dose: 200.0 mg/kg/injection, schedule: Q04DX003 (ip), vehicle: saline with Tween-80 101 % of control | dose: 400.0 mg/kg/injection, schedule: Q04DX003 (ip), vehicle: saline with Tween-80 101 % of control

Cc1nnc2c3[nH]c4ccccc4c3c(Cl)nn12
inactive: dose: 50.0 mg/kg/injection, schedule: Q01DX005 (ip), vehicle: Klucel (hydroxypropylcellulose) (HPC) 99 % of control | dose: 100.0 mg/kg/injection, schedule: Q01DX005 (ip), vehicle: Klucel (hydroxypropylcellulose) (HPC) 92 % of control | dose: 200.0 mg/kg/injection, schedule: Q01DX005 (ip), vehicle: Klucel (hydroxypropylcellulose) (HPC) 98 % of control

CC(C)C(=O)c1ccco1
inactive: dose: 3.13 mg/kg/injection, schedule: Q01DX009 (ip), vehicle: saline with Tween-80 90 % of control | dose: 6.25 mg/kg/injection, schedule: Q01DX009 (ip), vehicle: saline with Tween-80 100 % of control | dose: 12.5 mg/kg/injection, schedule: Q01DX009 (ip), vehicle: saline with Tween-80 100 % of control

C1=NOC2c3ccc4ccccc4c3CCC12 (centres undefined)
inactive: dose: 100.0 mg/kg/injection, schedule: Q01DX009 (ip), vehicle: Klucel (hydroxypropylcellulose) (HPC) 100 % of control | dose: 200.0 mg/kg/injection, schedule: Q01DX009 (ip), vehicle: Klucel (hydroxypropylcellulose) (HPC) 95 % of control | dose: 400.0 mg/kg/injection, schedule: Q01DX009 (ip), vehicle: Klucel (hydroxypropylcellulose) (HPC) 100 % of control

CCOC(=O)c1ccc(NN=NCCO)cc1
inactive: dose: 12.5 mg/kg/injection, schedule: Q01DX009 (ip), vehicle: distilled water + Tween-80 97 % of control | dose: 25.0 mg/kg/injection, schedule: Q01DX009 (ip), vehicle: distilled water + Tween-80 100 % of control | dose: 50.0 mg/kg/injection, schedule: Q01DX009 (ip), vehicle: distilled water + Tween-80 100 % of control | dose: 100.0 mg/kg/injection, schedule: Q01DX009 (ip), vehicle: distilled water + Tween-80 95 % of control | dose: 200.0 mg/kg/injection, schedule: Q01DX009 (ip), vehicle: distilled water + Tween-80 118 % of control

CCCCCCCCCCN(CCCCCCCCCC)C(C)C(=O)c1ccc2cc(Br)c3ccccc3c2c1 (centres undefined)
inactive: [1] 99 % of control | [2] 89 % of control | [9] 104 % of control

c1cc2c3c(c1)nc(CCc1nc4cccc5c4n1CCC5)n3CCC2
inactive: dose: 25.0 mg/kg/injection, schedule: Q04DX003 (ip), vehicle: saline with Tween-80 109 % of control | dose: 50.0 mg/kg/injection, schedule: Q04DX003 (ip), vehicle: saline with Tween-80 86 % of control | [8] 86 % of control

C=C/C=C\CN(C)Cc1ccccc1
inactive: dose: 12.5 mg/kg/injection, schedule: Q01DX005 (ip), vehicle: saline 99 % of control | dose: 25.0 mg/kg/injection, schedule: Q01DX005 (ip), vehicle: saline 105 % of control | dose: 50.0 mg/kg/injection, schedule: Q01DX005 (ip), vehicle: saline 106 % of control and 108 % of control | dose: 100.0 mg/kg/injection, schedule: Q01DX005 (ip), vehicle: saline 101 % of control

Fc1ccc(CN2COc3c(cc(Cl)c4cccnc34)C2)cc1
inactive: dose: 100.0 mg/kg/injection, schedule: Q04DX003 (ip), vehicle: Klucel (hydroxypropylcellulose) (HPC) 102 % of control | dose: 200.0 mg/kg/injection, schedule: Q04DX003 (ip), vehicle: Klucel (hydroxypropylcellulose) (HPC) 100 % of control | dose: 400.0 mg/kg/injection, schedule: Q04DX003 (ip), vehicle: Klucel (hydroxypropylcellulose) (HPC) 110 % of control

CC(=O)c1c(O)ccc2nc3ccccc3nc12
inactive: dose: 50.0 mg/kg/injection, schedule: Q01DX009 (ip), vehicle: suspension in saline 105 % of control | dose: 100.0 mg/kg/injection, schedule: Q01DX009 (ip), vehicle: suspension in saline 111 % of control | dose: 200.0 mg/kg/injection, schedule: Q01DX009 (ip), vehicle: suspension in saline 93 % of control

c1ccc2c(c1)[nH]c1cc3c(cc12)CCCCC3
inactive: [5] 107 % of control | [6] 91 % of control | [7] 97 % of control

O=C1Cc2ccccc2N1C(=O)c1cccc(Br)c1
inactive: dose: 100.0 mg/kg/injection, schedule: Q01DX001 (ip), vehicle: Klucel (hydroxypropylcellulose) (HPC) 98 % of control | dose: 200.0 mg/kg/injection, schedule: Q01DX001 (ip), vehicle: Klucel (hydroxypropylcellulose) (HPC) 95 % of control

CCCOC1(C)CC(c2cc(OC)c(OC)c(OC)c2)c2cc3c(cc2O1)OCO3 (centres undefined)
inactive: dose: 60.0 mg/kg/injection, schedule: Q01DX005 (ip), vehicle: Klucel (hydroxypropylcellulose) (HPC) 93 % of control | dose: 120.0 mg/kg/injection, schedule: Q01DX005 (ip), vehicle: Klucel (hydroxypropylcellulose) (HPC) 91 % of control | dose: 240.0 mg/kg/injection, schedule: Q01DX005 (ip), vehicle: Klucel (hydroxypropylcellulose) (HPC) 91 % of control

CCCCCCCCCCCCCCCc1cc(O)c(CC=C(C)C)c(=O)o1 (tested in a mixture with another compound)
inactive: dose: 82.5 mg/kg/injection, schedule: Q01DX005 (ip), vehicle: Klucel (hydroxypropylcellulose) (HPC) 98 % of control | dose: 165.0 mg/kg/injection, schedule: Q01DX005 (ip), vehicle: Klucel (hydroxypropylcellulose) (HPC) 97 % of control | dose: 330.0 mg/kg/injection, schedule: Q01DX005 (ip), vehicle: Klucel (hydroxypropylcellulose) (HPC) 105 % of control

CCOc1ccc(NC(=O)c2c(C)nc(-c3ccccc3)nc2Nc2ccc(Cl)cc2)cc1
inactive: [5] 90 % of control | [6] 90 % of control | [7] 94 % of control

CC(=O)NCCc1ccc(OC(C)=O)c(OC(C)=O)c1
inactive: [1] 99 % of control | [2] 103 % of control | [9] 107 % of control

O=C1N/C(=N\O)C(F)C(NO)N1 (centres undefined)
inactive: dose: 11.25 mg/kg/injection, schedule: Q04DX002 (ip), vehicle: distilled water + Tween-80 94 % of control | dose: 22.5 mg/kg/injection, schedule: Q04DX002 (ip), vehicle: distilled water + Tween-80 103 % of control | dose: 45.0 mg/kg/injection, schedule: Q04DX002 (ip), vehicle: distilled water + Tween-80 99 % of control | dose: 90.0 mg/kg/injection, schedule: Q04DX002 (ip), vehicle: distilled water + Tween-80 103 % of control | dose: 180.0 mg/kg/injection, schedule: Q04DX002 (ip), vehicle: distilled water + Tween-80 93 % of control | dose: 360.0 mg/kg/injection, schedule: Q04DX002 (ip), vehicle: distilled water + Tween-80 93 % of control
